Measured values from patent US8946420B2, “Neuromodulatory compounds” (Map Pharmaceuticals, Inc., priority 2011, dated 2015).

Columns and labels:
[1] = target: T1, Recombinant human serotonin 5-HT2A receptor (Homo sapiens, UniProt P28223); test: Aequorin assay, receptor agonist/antagonist activity, CHO-K1 cells; format: cell-based
T1 construct: expressed in transfected cells; host or cells: CHO-K1 cells co-expressing mitochondrial apoaequorin
Description: (§1) Compound 5A was synthesized as described above and assayed for receptor activity against a panel of dopaminergic and serotoninergic receptors. Recombinant human receptors serotonin 5-HT2A, 5-HT2B were expressed in CHO-K1 cells and activity (receptor agonist/antagonist activity) was assayed using an Aequorin assay (coexpression of mitochondrial apoaequorin) and Compound 5a at a concentration of 0.10 nM to 20,000 nM for agonist activity and 0.005 nM to 10,000 nM for antagonist activity. […]. The preserved 5-HT2B antagonism activity is hypothesized to a decrease or minimized occurrence of fibrosis (cardiac and non-cardiac) as it is thought that 5-HT2B agonism is responsible for this undesirable side-effect in other iso-ergoline compounds. […]. A decreased agonist activity towards the D3 receptor by Compound 5a is likely to produce minimal or decreased hallucinogenic effects. […].

[2] = target: T2, Recombinant human serotonin 5-HT2B receptor (Homo sapiens, UniProt P41595); test: as above; format: cell-based
T2 construct: expressed in transfected cells; host or cells: CHO-K1 cells co-expressing mitochondrial apoaequorin
T2 sequence (P41595 whole entry): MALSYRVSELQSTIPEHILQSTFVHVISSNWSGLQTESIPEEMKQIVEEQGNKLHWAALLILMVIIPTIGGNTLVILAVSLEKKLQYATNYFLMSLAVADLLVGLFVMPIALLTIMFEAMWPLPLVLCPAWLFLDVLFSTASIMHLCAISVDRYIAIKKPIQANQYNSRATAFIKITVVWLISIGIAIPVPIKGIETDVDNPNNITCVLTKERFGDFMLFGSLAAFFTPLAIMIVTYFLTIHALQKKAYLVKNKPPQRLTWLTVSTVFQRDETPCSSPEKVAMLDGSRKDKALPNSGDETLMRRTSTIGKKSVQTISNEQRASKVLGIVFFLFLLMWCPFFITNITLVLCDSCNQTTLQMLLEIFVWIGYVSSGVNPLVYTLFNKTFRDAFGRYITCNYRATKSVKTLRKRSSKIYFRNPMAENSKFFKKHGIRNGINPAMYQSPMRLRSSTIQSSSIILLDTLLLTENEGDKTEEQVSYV
Description: as §1

[3] = target: Recombinant human dopaminergic receptor D2L (Homo sapiens, UniProt P14416); test: GTPγS functional assay; format: biochemical; details: in words
Recombinant human dopaminergic receptor D2L, sequence (P14416 whole entry): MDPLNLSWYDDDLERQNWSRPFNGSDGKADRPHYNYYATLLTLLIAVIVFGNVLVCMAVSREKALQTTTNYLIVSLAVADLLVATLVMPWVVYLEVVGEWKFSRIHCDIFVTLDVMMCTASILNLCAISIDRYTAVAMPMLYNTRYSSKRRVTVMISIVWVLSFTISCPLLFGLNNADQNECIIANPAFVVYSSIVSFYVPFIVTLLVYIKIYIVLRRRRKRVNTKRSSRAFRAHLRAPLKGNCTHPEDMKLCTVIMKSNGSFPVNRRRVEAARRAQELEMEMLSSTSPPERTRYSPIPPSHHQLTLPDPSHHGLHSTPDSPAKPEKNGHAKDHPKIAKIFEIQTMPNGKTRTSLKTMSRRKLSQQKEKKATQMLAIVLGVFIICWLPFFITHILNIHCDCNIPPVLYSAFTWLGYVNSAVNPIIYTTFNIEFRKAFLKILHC

[4] = target: Recombinant human dopaminergic receptor D3 (Homo sapiens, UniProt P35462); test: GTPγS functional assay; format: biochemical
Recombinant human dopaminergic receptor D3, sequence (P35462 whole entry): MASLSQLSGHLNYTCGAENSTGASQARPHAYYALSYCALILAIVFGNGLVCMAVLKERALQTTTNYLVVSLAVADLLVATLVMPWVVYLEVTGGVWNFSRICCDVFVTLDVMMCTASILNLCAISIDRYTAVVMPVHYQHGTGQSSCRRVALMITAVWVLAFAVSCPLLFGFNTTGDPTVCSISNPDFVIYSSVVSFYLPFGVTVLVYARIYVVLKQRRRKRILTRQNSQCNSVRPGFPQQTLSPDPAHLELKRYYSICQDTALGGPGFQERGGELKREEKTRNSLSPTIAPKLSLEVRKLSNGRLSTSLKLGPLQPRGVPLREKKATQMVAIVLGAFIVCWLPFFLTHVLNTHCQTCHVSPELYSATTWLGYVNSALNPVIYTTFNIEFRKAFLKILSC

[5] = target: Recombinant human serotonin receptor 5-HT1B (Homo sapiens, UniProt P28222); test: GTPγS functional assay; format: biochemical; details: read-out: 5-HT1B agonism, EC50
Recombinant human serotonin receptor 5-HT1B, sequence (P28222 whole entry): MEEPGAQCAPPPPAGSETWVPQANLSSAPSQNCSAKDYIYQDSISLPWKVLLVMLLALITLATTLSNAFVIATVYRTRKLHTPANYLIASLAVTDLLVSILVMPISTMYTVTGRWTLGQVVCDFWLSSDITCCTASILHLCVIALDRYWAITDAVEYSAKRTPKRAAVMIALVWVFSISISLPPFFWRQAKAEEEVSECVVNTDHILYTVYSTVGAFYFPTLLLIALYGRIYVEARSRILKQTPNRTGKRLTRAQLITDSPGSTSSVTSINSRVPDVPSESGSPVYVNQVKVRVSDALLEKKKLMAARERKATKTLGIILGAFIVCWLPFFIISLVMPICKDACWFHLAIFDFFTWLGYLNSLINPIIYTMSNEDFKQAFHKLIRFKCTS

[6] = target: T3, Recombinant human serotonin receptor 5-HT1A (Homo sapiens, UniProt P08908); test: GTPγS functional assay; format: biochemical; details: in words
T3 sequence (P08908 1-422): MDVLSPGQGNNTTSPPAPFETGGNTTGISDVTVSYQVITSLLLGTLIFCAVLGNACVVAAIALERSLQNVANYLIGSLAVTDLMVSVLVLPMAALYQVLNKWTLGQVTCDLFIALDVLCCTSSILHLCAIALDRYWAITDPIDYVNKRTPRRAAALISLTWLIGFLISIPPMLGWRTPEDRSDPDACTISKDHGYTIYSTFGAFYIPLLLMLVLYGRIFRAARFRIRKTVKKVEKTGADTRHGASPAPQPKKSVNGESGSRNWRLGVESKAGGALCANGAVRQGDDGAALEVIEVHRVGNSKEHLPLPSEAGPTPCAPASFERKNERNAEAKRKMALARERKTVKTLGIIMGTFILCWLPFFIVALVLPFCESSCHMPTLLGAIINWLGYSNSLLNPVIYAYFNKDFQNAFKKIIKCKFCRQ

[7] = target: Recombinant human serotonin receptor 5-HT1D (Homo sapiens, UniProt P28221); test: GTPγS functional assay; format: biochemical
Recombinant human serotonin receptor 5-HT1D, sequence (P28221 whole entry): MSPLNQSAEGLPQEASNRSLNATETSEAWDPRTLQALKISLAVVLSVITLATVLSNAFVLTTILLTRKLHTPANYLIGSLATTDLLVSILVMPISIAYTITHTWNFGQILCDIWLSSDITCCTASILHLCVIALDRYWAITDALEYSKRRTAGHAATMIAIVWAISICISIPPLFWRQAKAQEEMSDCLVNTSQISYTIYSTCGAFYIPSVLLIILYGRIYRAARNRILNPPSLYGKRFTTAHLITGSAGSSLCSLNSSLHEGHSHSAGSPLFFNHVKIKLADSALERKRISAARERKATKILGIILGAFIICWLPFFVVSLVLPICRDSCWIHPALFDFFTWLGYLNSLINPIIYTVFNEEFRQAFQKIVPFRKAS

T1 sequence (P28223 whole entry): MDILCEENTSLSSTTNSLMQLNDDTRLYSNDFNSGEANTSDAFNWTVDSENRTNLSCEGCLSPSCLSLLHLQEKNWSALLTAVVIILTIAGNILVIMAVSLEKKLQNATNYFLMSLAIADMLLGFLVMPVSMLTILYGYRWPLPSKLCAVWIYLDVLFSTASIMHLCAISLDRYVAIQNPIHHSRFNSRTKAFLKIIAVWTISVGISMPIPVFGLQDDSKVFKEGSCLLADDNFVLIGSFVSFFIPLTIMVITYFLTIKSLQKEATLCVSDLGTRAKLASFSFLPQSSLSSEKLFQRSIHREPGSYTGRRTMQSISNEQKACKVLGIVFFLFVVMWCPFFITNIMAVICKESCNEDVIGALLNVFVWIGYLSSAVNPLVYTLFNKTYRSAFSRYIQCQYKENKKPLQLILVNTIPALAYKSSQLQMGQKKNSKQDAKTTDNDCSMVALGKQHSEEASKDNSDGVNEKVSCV

CN1C[C@@H](NC(=O)N(CC(F)(F)F)CC(F)(F)F)C=C2c3cccc4[nH]cc(c34)C[C@H]21 [Compound 5A]
EC50 ([1]; agonist mode, 0.10 nM to 20,000 nM): 5020 nM | 5-HT2A receptor agonist activity ([1]; in words, compared to lisuride): weak 5-HT2A receptor agonist activity | IC50 ([2]; antagonist mode, 0.005 nM to 10,000 nM, read-out: 5-HT2B antagonism activity, 1050): 190 nM | 5-HT2B receptor activity ([2]; in words): 5-HT2B antagonist | D2L agonist activity (Emax) compared to lisuride [3]: comparable D2L agonist activity (Emax) | EC50 ([4]; 0.005 nM to 10,000 nM, read-out: agonist activity towards the dopaminergic D3 receptor, EC50): 27 nM | dopaminergic receptor D3 agonism ([4]; in words, compared to lisuride): weaker dopaminergic receptor D3agonism | EC50 [5]: 287 nM | agonistic activity towards the 5-HT1A receptor [6]: weak/moderate agonistic activity | selectivity for 5-HT1D to 5-HT1B ([7]; ratio of EC50 values): 20 fold | EC50 ([7]; read-out: 5-HT1D agonism, EC50): 15 nM
